Source: PubChem BioAssay (NCI)
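GI50 is the concentration that inhibits growth by half. TGI marks complete inhibition of growth.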

Assays:
Assay in all cases: NCI anticancer screen, dose series, 384-well format
[1] = test system: LOX IMVI melanoma
[2] = test system: SR leukemia
[3] = test system: OVCAR-4 ovarian
[4] = test system: HOP-92 NSCLC
[5] = test system: SK-MEL-5 melanoma
[6] = test system: OVCAR-3 ovarian
[7] = test system: UACC-257 melanoma
[8] = test system: MDA-MB-231 breast
[9] = test system: T-47D breast
[10] = test system: MDA-MB-468 breast
[11] = test system: PC-3 prostate
[12] = test system: SF-268 CNS
[13] = test system: CAKI-1 renal
[14] = test system: NCI-H226 lung
[15] = test system: NCI-H522 lung
[16] = test system: OVCAR-5 ovarian
[17] = test system: HT29 colon
[18] = test system: A498 renal
[19] = test system: BT-549 breast
[20] = test system: 786-0 renal
[21] = test system: SK-MEL-2 melanoma
[22] = test system: MDA-MB-435 melanoma
[23] = test system: K-562 leukemia
[24] = test system: MCF7 breast
[25] = test system: MALME-3M melanoma
[26] = test system: HCT-15 colon
[27] = test system: IGROV1 ovarian
[28] = test system: HL-60(TB) leukemia
[29] = test system: SK-MEL-28 melanoma
[30] = test system: SF-539 CNS
[31] = test system: MOLT-4 leukemia
[32] = test system: COLO 205 colon
[33] = test system: NCI-H322M lung
[34] = test system: CCRF-CEM leukemia
[35] = test system: KM12 colon
[36] = test system: U251 glioblastoma
[37] = test system: UACC-62 melanoma
[38] = test system: RXF 393 renal
[39] = test system: SF-295 CNS
[40] = test system: DU-145 prostate
[41] = test system: SNB-19 CNS
[42] = test system: HCC-2998 colon
[43] = test system: OVCAR-8 ovarian
[44] = test system: UO-31 renal
[45] = test system: SN12C renal
[46] = test system: RPMI-8226 leukemia
[47] = test system: M14 melanoma
[48] = test system: A549 NSCLC
[49] = test system: SW-620 colon
[50] = test system: NCI-H460 NSCLC
[51] = test system: TK-10 renal
[52] = test system: ACHN renal
[53] = test system: HCT-116 colon
[54] = test system: SK-OV-3 ovarian
[55] = test system: NCI/ADR-RES ovarian
[56] = test system: HOP-62 NSCLC
[57] = test system: SNB-75 CNS
[58] = test system: EKVX NSCLC
[59] = test system: HS 578T breast
[60] = test system: NCI-H23 lung

In the case of `C=CC(=O)Nc1cc(Nc2ncc(C(=O)OC(C)C)c(-c3cn(C)c4ccccc34)n2)c(OC)cc1N(C)CCN(C)C`, the GI50 [1] is reported as 2.22 µM, the TGI [1] is reported as 3.67 µM and the GI50 [2] is reported as 1.1 µM. The TGI [2] was 2.29 µM, the GI50 [3] was 1.8 µM and the TGI [3] was 4.21 µM. It also gave a GI50 [4] of 1.45 µM, a TGI [4] of 2.86 µM and a GI50 [5] of 1.89 µM. The TGI [5] was 3.29 µM, the GI50 [6] was 1.2 µM and the TGI [6] was 2.68 µM. It also gave a GI50 [7] of 1.5 µM, a TGI [7] of 2.83 µM and a GI50 [8] of 1.79 µM. It also gave a TGI [8] of 3.24 µM, a GI50 [9] of 1.28 µM and a TGI [9] of 2.56 µM. It also gave a GI50 [10] of 0.026 µM, a TGI [10] of 1.33 µM and a GI50 [11] of 2.1 µM. The TGI [11] was 4.08 µM, the GI50 [12] was 1.57 µM and the TGI [12] was 2.96 µM. For the same molecule, the GI50 [13] was 1.04 µM, the TGI [13] was 2.25 µM and the GI50 [14] was 1.98 µM. The TGI [14] was 4.64 µM, the GI50 [15] was less than 0.01 µM and the TGI [15] was 1.4 µM. For the same molecule, the GI50 [16] was 4.18 µM, the TGI [16] was greater than 100 µM and the GI50 [17] was 1.67 µM. For the same molecule, the TGI [17] was 3.05 µM, the GI50 [18] was 1.25 µM and the TGI [18] was 2.53 µM. It also gave a GI50 [19] of 1.91 µM, a TGI [19] of 3.48 µM and a GI50 [20] of 1.3 µM. It also gave a TGI [20] of 2.58 µM, a GI50 [21] of 1.57 µM and a TGI [21] of 2.91 µM. For the same molecule, the GI50 [22] was 1.83 µM, the TGI [22] was 3.23 µM and the GI50 [23] was 1.93 µM. For the same molecule, the TGI [23] was 3.34 µM, the GI50 [24] was 1.71 µM and the TGI [24] was 3.11 µM. The GI50 [25] was 1.69 µM, the TGI [25] was 3.06 µM and the GI50 [26] was 1.83 µM. For the same molecule, the TGI [26] was 3.23 µM, the GI50 [27] was 1.01 µM and the TGI [27] was 2.31 µM. For the same molecule, the GI50 [28] was 1.65 µM, the TGI [28] was 3 µM and the GI50 [29] was 1.71 µM. The TGI [29] was 3.08 µM, the GI50 [30] was 1.79 µM and the TGI [30] was 3.18 µM. For the same molecule, the GI50 [31] was 1.13 µM, the TGI [31] was 2.33 µM and the GI50 [32] was 1.74 µM. The TGI [32] was 3.13 µM, the GI50 [33] was 0.0143 µM and the TGI [33] was 1.76 µM. It also gave a GI50 [34] of 1.81 µM, a TGI [34] of 3.2 µM and a GI50 [35] of 1.76 µM. The TGI [35] was 3.21 µM, the GI50 [36] was 1.75 µM and the TGI [36] was 3.13 µM. The GI50 [37] was 1.63 µM, the TGI [37] was 2.99 µM and the GI50 [38] was 1.45 µM. It also gave a TGI [38] of 2.76 µM, a GI50 [39] of 7.04 µM and a TGI [39] of 19.5 µM. For the same molecule, the GI50 [40] was 1.15 µM, the TGI [40] was 6.14 µM and the GI50 [41] was 3.99 µM. For the same molecule, the TGI [41] was 15.1 µM, the GI50 [42] was 1.47 µM and the TGI [42] was 2.8 µM. It also gave a GI50 [43] of 1.75 µM, a TGI [43] of 3.31 µM and a GI50 [44] of 1.02 µM. The TGI [44] was 2.19 µM, the GI50 [45] was 1.63 µM and the TGI [45] was 3.38 µM. It also gave a GI50 [46] of 1.19 µM, a TGI [46] of 2.42 µM and a GI50 [47] of 1.76 µM. It also gave a TGI [47] of 3.14 µM, a GI50 [48] of 1.45 µM and a TGI [48] of 4.67 µM. For the same molecule, the GI50 [49] was 1.92 µM, the TGI [49] was 3.34 µM and the GI50 [50] was 1.63 µM. For the same molecule, the TGI [50] was 2.98 µM, the GI50 [51] was 0.0635 µM and the TGI [51] was 1.71 µM. The GI50 [52] was 0.0647 µM, the TGI [52] was 1.85 µM and the GI50 [53] was 1.64 µM. The TGI [53] was 3 µM, the GI50 [54] was 0.05 µM and the TGI [54] was 2.04 µM. For the same molecule, the GI50 [55] was 1.55 µM and the TGI [55] was 4.34 µM.
For `CC1CCC(n2c3cnccc3c3cnc(Nc4ccc5c(n4)CCN(C(=O)CO)C5)nc32)CC1` (stereo not given), the GI50 [1] was 2.4 µM, the TGI [1] was greater than 100 µM and the GI50 [2] was 0.316 µM. For the same molecule, the TGI [2] was 0.829 µM, the GI50 [3] was 15.1 µM and the TGI [3] was greater than 40 µM. It also gave a GI50 [4] of 6.32 µM, a TGI [4] greater than 20.6 µM and a GI50 [5] of 2.36 µM. It also gave a TGI [5] greater than 94.8 µM, a GI50 [6] of 5.68 µM and a TGI [6] of 12.6 µM. The GI50 [7] was greater than 100 µM, the TGI [7] was greater than 100 µM and the GI50 [8] was 2.91 µM. It also gave a TGI [8] of 14.4 µM, a GI50 [9] greater than 100 µM and a TGI [9] greater than 100 µM. The GI50 [10] was 13.5 µM, the TGI [10] was 57.8 µM and the GI50 [11] was 7.58 µM. The TGI [11] was greater than 81.2 µM, the GI50 [12] was 4.47 µM and the TGI [12] was 15.2 µM. It also gave a GI50 [13] of 1.42 µM, a TGI [13] greater than 28 µM and a GI50 [14] of 9.33 µM. For the same molecule, the TGI [14] was greater than 100 µM, the GI50 [15] was 6.06 µM and the TGI [15] was greater than 100 µM. For the same molecule, the GI50 [16] was 2.23 µM, the TGI [16] was greater than 100 µM and the GI50 [17] was 6.05 µM. It also gave a TGI [17] greater than 100 µM, a GI50 [18] of 1.78 µM and a TGI [18] of 9.42 µM. For the same molecule, the GI50 [19] was 6.54 µM, the TGI [19] was greater than 72.4 µM and the GI50 [20] was 12.4 µM. It also gave a TGI [20] of 66.9 µM, a GI50 [22] of 8.55 µM and a TGI [22] greater than 100 µM. For the same molecule, the GI50 [23] was 3.64 µM, the TGI [23] was greater than 100 µM and the GI50 [24] was 1.04 µM. The TGI [24] was greater than 100 µM, the GI50 [25] was 19.8 µM and the TGI [25] was greater than 100 µM. The GI50 [26] was 0.656 µM, the TGI [26] was greater than 100 µM and the GI50 [27] was 8.39 µM. For the same molecule, the TGI [27] was greater than 100 µM, the GI50 [28] was 0.286 µM and the TGI [28] was 1.75 µM. The GI50 [29] was 11.9 µM, the TGI [29] was greater than 100 µM and the GI50 [30] was 5.87 µM. It also gave a TGI [30] greater than 100 µM, a GI50 [31] of 0.278 µM and a TGI [31] of 2.71 µM. The GI50 [32] was 0.846 µM, the GI50 [33] was 8.61 µM and the TGI [33] was greater than 26.4 µM. The GI50 [34] was 0.638 µM, the TGI [34] was 2.31 µM and the GI50 [35] was 0.293 µM. The TGI [35] was 4.05 µM, the GI50 [36] was 7.16 µM and the TGI [36] was greater than 100 µM. It also gave a GI50 [37] of 6.15 µM, a TGI [37] greater than 100 µM and a GI50 [38] greater than 20.7 µM. The TGI [38] was greater than 100 µM, the TGI [39] was greater than 73.9 µM and the GI50 [56] was 3.66 µM. The TGI [56] was greater than 100 µM, the GI50 [40] was 7.86 µM and the TGI [40] was 42.2 µM. The GI50 [57] was 4.47 µM, the TGI [57] was greater than 20.3 µM and the GI50 [41] was 7.56 µM. It also gave a TGI [41] greater than 100 µM, a GI50 [42] of 1.69 µM and a TGI [42] greater than 100 µM. For the same molecule, the GI50 [43] was 6.42 µM, the TGI [43] was greater than 100 µM and the GI50 [44] was 15.1 µM. The TGI [44] was greater than 100 µM, the GI50 [45] was 16.3 µM and the TGI [45] was greater than 100 µM. The TGI [58] was greater than 100 µM, the GI50 [59] was 18.3 µM and the TGI [59] was greater than 100 µM. It also gave a GI50 [46] of 0.253 µM, a TGI [46] of 1.71 µM and a GI50 [47] of 8.48 µM. For the same molecule, the TGI [47] was greater than 100 µM, the GI50 [48] was 2.15 µM and the TGI [48] was greater than 100 µM. It also gave a GI50 [49] of 1.05 µM, a TGI [49] of 14.2 µM and a GI50 [60] of 3.4 µM. It also gave a TGI [60] greater than 100 µM, a GI50 [50] of 0.749 µM and a TGI [50] of 4.74 µM. It also gave a GI50 [51] of 5.16 µM, a TGI [51] greater than 100 µM and a GI50 [52] of 2.59 µM. It also gave a TGI [52] greater than 21.9 µM, a GI50 [53] of 1.69 µM and a TGI [53] of 16.2 µM. It also gave a GI50 [54] of 21.6 µM, a TGI [54] greater than 100 µM and a GI50 [55] of 13.9 µM. The TGI [55] was greater than 100 µM.
